From patent US11780895B2, “Targeted DNA demethylation and methylation” (The Jackson Laboratory, priority 2016, dated 2023)

B1: Dnmt3a-PUF: Dnmt3a catalytic domain fused to the N-terminus of PUFa (protein)
chain: MGPANHDQEFDPPKVYPPVPAEKRKPIRVLSLFDGIATGLLVLKDLGIQVDRYIASEVCEDSITVGMVRHQGKIMYVGDVRSVTQKHIQEWGPFDLVIGGSPCNDLSIVNPARKGLYEGTGRLFFEFYRLLHDARPKEGDDRPFFWLFENVVAMGVSDKRDISRFLESNPVMIDAKEVSAAHRARYFWGNLPGMNRPLASTVNDKLELQECLEHGRIAKFSKVRTITTRSNSIKQGKDQHFPVFMNEKEDILWCTEMERVFGFPVHYTDVSNMSRLARQRLLGRSWSVPVIRHLFAPLKEYFACVIDGGGGSDPKKKRKVDPKKKRKVDPKKKRKVGSTGSRNDGGGGSGGGGSGGGGSGRAGILPPKKKRKVSRGRSRLLEDFRNNRYPNLQLREIAGHIMEFSQDQHGSRFIQLKLERATPAERQLVFNEILQAAYQLMVDVFGNYVIQKFFEFGSLEQKLALAERIRGHVLSLALQMYGSRVIEKALEFIPSDQQNEMVRELDGHVLKCVKDQNGNHVVQKCIECVQPQSLQFIIDAFKGQVFALSTHPYGCRVIQRILEHCLPDQTLPILEELHQHTEQLVQDQYGNYVIQHVLEHGRPEDKSKIVAEIRGNVLVLSQHKFASNVVEKCVTHASRTERAVLIDEVCTMNDGPHSALYTMMKDQYANYVVQKMIDVAEPGQRKIVMHKIRPHIATLRKYTYGKHILAKLEKYYMKNGVDLGDPKKKRKVDPKKKRKVGGRGGGGSGGGGSGGGGSGPA

Columns and labels:
[1] = tested on: hMLH1 promoter; assay: Bisulfite conversion and sequencing of the hMLH1 promoter region; type: cell-based, human; conditions: untransfected HEK293T cells treated for 6 days
Excerpt: Casilio-mediated delivery of demethylation enzymes alters methylation state of targeted genomic locus. Evidence that the shown Casilio-ME-induced activation of hMLH1 transcription is a result of TET1-mediated cytosine demethylation within the targeted promoter region came from DNA sequencing of hMLH1 promoter after bisulfite conversion. Bisulfite treatment of genomic DNA deaminates unmethylated cytosines to produce uracils that are subsequently replicated as thymine. However, methylated cytosines are protected from conversion to uracils, thus allowing one to determine cytosine methylation states at single-nucleotide resolution by direct sequencing.
To assess changes in methylation states of CpG island within hMLH1 promoter region after Casilio-ME-mediated transcription activation, time course experiment were carried out where cells were collected 3, 4, 5, and 6 days post transfection, for analysis of cytosine methylation as well as transcription activation, and protein expression. HEK293T were transfected with Casilio-ME components that includes Ct-fusion PUFa-TET1 effector and a combination of 2 sgRNAs (RNA guides 3 and 7).
Cell culture and transfection. […]

[2] = tested on: SOX2; assay: SOX2 gene expression by quantitative reverse-transcription PCR after targeting Dnmt effectors to the SOX2 promoter; type: cell-based; conditions: with dCas9 and sgRNA-PBS targeting SOX2 promoter; compared with dCas9 direct fusions
Description: Establishment of a dCas9-expressing cell line. The day prior to transfection, Lenti-X 293T cells were seeded into 6-well plates at 1.2 million cells per well. The cells were transfected with the supercoiled packaging plasmids (pLP1 (gag/pol), pLP2 (rev), and VSV-G (envelope)) and a dCas9 lentiviral expression plasmid through Lipofectamine 3000 reagent (Invitrogen). At 6 h posttransfection, medium was exchanged for fresh. At 24 h posttransfection, 2 ml of medium containing the lentivirus were collected and centrifuged for 10 minutes at 2,000 rpm to remove cellular debris. The supernatant was filtered utilizing a […] pore filter (Millipore), and the lentivirus was frozen at −80° C. until needed. HEK293T cells, seeded into a 12-well plate at 150,000 cells per well, were transduced with 500 μl of the dCas9 lentivirus in culture medium supplemented with 5 μg/ml polybrene for 12 hours, and subsequently selected with Blasticidin antibiotics on the third day post transduction.
Transfection. HEK293T, and HEK293T/dCas9 cell lines were seeded into 12-well plates at 150,000 cells per well. […] At 3 day post-transfection, the cells were sorted for GFP (sgRNA expression constructs are marked by GFP) with fluorescence-activated cell sorting (FACS) and re-plated into 12 or 24-well plates.
Quantitative reverse-transcription PCR. […]

Molecule | bisulfite conversion frequency within hMLH1 promoter region [1] | repression of SOX2 gene expression [2]
Nc1ncn([C@@H]2O[C@H](CO)[C@@H](O)[C@H]2O)c(=O)n1 [5′azacytidine, 5-Azacytidine] | increased bisulfite conversion frequency on multiple CpG sites | 
B1 |  | more robust repression of SOX2 gene expression compared to direct fusions
